Like-named read-outs stand apart in the source and are kept apart here.
Assays:
GALC [1] = biological target: T1, GALC (Mus musculus, UniProt P54818); test: Differential scanning fluorimetry (DSF) thermal shift of wild-type GALC; format: binding; conditions: for ΔTm at 5000 µM / ΔTm1 pH 7.4 (first transition of double sigmoid melt curve) / ΔTm2 pH 7.4 (second transition of double sigmoid melt curve): 5.0 mM compound; for ΔTm at 5000 µM: triplicate; for additional increase of Tm over DGJ, DIL and IGL / increase of Tm of wild-type enzyme: pH 4.6, 5 mM; for ΔTm1 pH 7.4 (first transition of double sigmoid melt curve) / ΔTm2 pH 7.4 (second transition of double sigmoid melt curve): PBS pH 7.4
T1 construct: made in house
T1 sequence (P54818 43-684): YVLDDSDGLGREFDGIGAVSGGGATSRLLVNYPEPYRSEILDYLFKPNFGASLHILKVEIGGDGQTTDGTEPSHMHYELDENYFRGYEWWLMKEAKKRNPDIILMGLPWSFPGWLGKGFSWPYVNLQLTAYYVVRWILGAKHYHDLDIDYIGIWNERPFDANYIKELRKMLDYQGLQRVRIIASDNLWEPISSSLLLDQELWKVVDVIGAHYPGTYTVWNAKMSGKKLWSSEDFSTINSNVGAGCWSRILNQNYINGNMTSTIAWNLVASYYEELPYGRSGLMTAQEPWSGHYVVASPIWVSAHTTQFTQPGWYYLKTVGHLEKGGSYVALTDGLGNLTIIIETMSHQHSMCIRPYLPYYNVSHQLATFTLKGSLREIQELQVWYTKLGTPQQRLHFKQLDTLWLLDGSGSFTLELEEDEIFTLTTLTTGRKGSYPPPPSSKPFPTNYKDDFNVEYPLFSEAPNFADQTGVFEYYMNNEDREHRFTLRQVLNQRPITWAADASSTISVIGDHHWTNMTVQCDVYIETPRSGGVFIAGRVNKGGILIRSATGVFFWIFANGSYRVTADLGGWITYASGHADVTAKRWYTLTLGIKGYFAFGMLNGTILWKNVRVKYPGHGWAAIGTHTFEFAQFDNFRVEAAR

[2] = biological target: T2, β-galactocerebrosidase (GALC) (Mus musculus, UniProt P54818); test: GALC enzyme inhibition kinetics, Ki determination with chromogenic substrate 4NβDG; format: biochemical; conditions: for Ki: pH 4.6, substrate 4-nitrophenyl-β-D-galactopyranoside, steady-state, competitive inhibition model; for times more potent inhibitors of GALC than pyrrolidine DIL and lactam IGL: pH 4.6, ratio of Ki values
T2 construct: made in house
T2 sequence (P54818 43-684): T1 sequence (P54818 43-684)

[3] = pKaH and protonation state of azasugars; format: physicochemical; conditions: pH 7.4, from pKaH
[4] = set-up: method as in PMID 11891910; conditions: cited from earlier work
GALC E258Q = biological target: T3, GALC E258Q (Mus musculus, UniProt P54818, E274Q); test: DSF thermal shift of GALC E258Q mutant; format: binding; conditions: pH 7.4 PBS, 10 mM compound
T3 construct: made in house
T3 sequence (P54818 41-684 E274Q limits assumed): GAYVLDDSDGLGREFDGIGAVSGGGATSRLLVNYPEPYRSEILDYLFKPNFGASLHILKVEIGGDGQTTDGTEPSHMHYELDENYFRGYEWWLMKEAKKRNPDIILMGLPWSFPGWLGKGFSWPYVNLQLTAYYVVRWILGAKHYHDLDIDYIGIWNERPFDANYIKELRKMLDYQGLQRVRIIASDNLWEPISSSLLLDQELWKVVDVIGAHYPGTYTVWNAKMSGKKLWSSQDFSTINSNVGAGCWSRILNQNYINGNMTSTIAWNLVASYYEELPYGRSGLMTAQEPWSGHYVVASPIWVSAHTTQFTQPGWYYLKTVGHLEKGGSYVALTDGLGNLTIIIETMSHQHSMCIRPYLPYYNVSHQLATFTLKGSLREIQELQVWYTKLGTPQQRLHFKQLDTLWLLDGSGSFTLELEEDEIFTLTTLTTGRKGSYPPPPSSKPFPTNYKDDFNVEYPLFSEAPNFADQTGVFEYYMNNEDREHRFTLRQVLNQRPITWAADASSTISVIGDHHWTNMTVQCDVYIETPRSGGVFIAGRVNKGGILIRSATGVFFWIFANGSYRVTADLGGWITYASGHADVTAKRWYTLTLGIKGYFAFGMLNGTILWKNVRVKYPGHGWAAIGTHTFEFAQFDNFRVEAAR
From the text: All molecules form stabilizing hydrogen bonds with the side chain of E258 in the active site (Fig. 8A). […] Thus E258 O^ε2 could be forming a tight electrostatic interaction with the charged nitrogen in the ring of these molecules. Mutation of E258 to glutamine allows for the maintenance of a hydrogen bond but not an electrostatic interaction. We expressed and purified the E258Q mutant and repeated the DSF experiments at both pH 4.6 and pH 7.4. The importance of this interaction between E258 and the candidate chaperone molecules is highlighted by the complete loss of stabilization of GALC E258Q at pH 4.6 by all molecules except lactam IGL, which is incapable of forming a salt bridge (Fig. 8B). At pH 7.4, the global stability conferred by piperidine IGF to the E258Q mutant has lost the double sigmoid features seen for the wild-type GALC at pH 7.4 (Fig. 4A and 8C). […] To further understand the nature of the GALC–IGF interaction that is conferring the double melt curve we carried out DSF experiments at a range of pH values. […]
DSF experiments were performed in 48-well plates, 50 μL reactions comprised 5.0 μg GALC and 5× SyPRO Orange dye in either PBS pH 7.4, 20 mM Tris pH 7.4 or 20 mM sodium acetate pH 4.6. […] SyPRO fluorescence was monitored on the HEX channel. […] Stabilization is expressed as the ΔT m compared to a protein-only control. […]

GALC [5] = biological target: T1, GALC; test: GALC crystal soaks, X-ray ligand binding in the active site; conditions: 20 mM ligand crystal soak; non-binders repeated for 1 hour and overnight
[6] = 50 mM, Fig. S2, pH 4.6 and pH 7.4
[7] = PBS pH 7.4, mean ± SEM, read-out: ΔTm pH 7.4
[8] = sodium acetate pH 4.6, mean ± SEM, read-out: ΔTm pH 4.6

Structure (SMILES): OC[C@H]1OC(O)[C@H](O)[C@@H](O)[C@H]1O (mixture of isomers) [galactose, reference compound]
- stabilization of GALC (GALC [1]; [6]): no stabilization
- Ki [2]: 7200 µM

Structure (SMILES): O=CC[C@@H](O)[C@@H](O)[C@H](O)CO [2-deoxy-galactose, reference compound]
- stabilization of GALC (GALC [1]; [6]): no stabilization

Structure (SMILES): OC[C@H]1NNC[C@@H](O)[C@H]1O [AGF, aza-galacto-fagomine]
- ΔTm at 5000 µM (GALC [1]; [7]): 4.6 °C
- ΔTm at 5000 µM (GALC [1]; [8]): 16.4 °C
- additional increase of Tm over DGJ, DIL and IGL (GALC [1]): 8–9 degrees
- times more potent inhibitors of GALC than pyrrolidine DIL and lactam IGL [2]: greater than 80 times
- Ki [2]: 0.63 ± 0.053 µM
- molecules possessing a positive charge at pH 7.4 [3]: 2%
- pKaH [4]: 5.7

Structure (SMILES): OCC1NCC(O)C(O)C1O (stereo not shown) [DGJ, 1-deoxy-galacto-nojirimycin, reference compound]
- ΔTm at 5000 µM (GALC [1]; [7]): 5.2 °C
- increase of Tm of wild-type enzyme (GALC [1]): 6–8 degrees

Structure (SMILES): OCC1C2CCC(N2)C(O)C1O (stereo not shown) [DGN, deoxy-galacto-noeurostegine]
- ΔTm at 5000 µM (GALC [1]; [7]): -3.6 ± 0.1 °C
- ΔTm at 5000 µM (GALC [1]; [8]): 1 °C
- effect on global stability of wild-type GALC (GALC [1]; pH 7.4): destabilized GALC

Structure (SMILES): OC[C@H]1NC[C@@H](O)[C@H]1O [DIL]
- ΔTm at 5000 µM (GALC [1]; [7]): 4 °C
- ΔTm at 5000 µM (GALC [1]; [8]): 7.2 °C
- increase of Tm of wild-type enzyme (GALC [1]): 6–8 degrees
- Ki [2]: 130 ± 6 µM

Structure (SMILES): OC[C@H]1NC[C@H](O)[C@@H](O)[C@@H]1O [DNJ, 1-deoxynojirimycin, reference compound]
- stabilization of GALC (GALC [1]; up to 10 mM, either pH (4.6 or 7.4), Fig. S2): unable to stabilize GALC

Structure (SMILES): OC[C@H]1CNC[C@@H](O)[C@H]1O [IGF, iso-galacto-fagomine]
- ΔTm1 pH 7.4 (first transition of double sigmoid melt curve) (GALC [1]): 4 °C
- ΔTm2 pH 7.4 (second transition of double sigmoid melt curve) (GALC [1]): 21 °C
- ΔTm1 pH 7.4 (first transition of double sigmoid melt curve) (GALC [1]; listed as IGF1): +4.0 ± 0.3 °C
- ΔTm2 pH 7.4 (second transition of double sigmoid melt curve) (GALC [1]; listed as IGF2): +21.0 ± 0.2 °C
- ΔTm at 5000 µM (GALC [1]; [8]): 17.7 °C
- additional increase of Tm over DGJ, DIL and IGL (GALC [1]): 8–9 degrees
- higher Tm2 with GALC E258Q (GALC E258Q): abolished
- times more potent inhibitors of GALC than pyrrolidine DIL and lactam IGL [2]: greater than 80 times
- Ki [2]: 0.38 ± 0.026 µM
- molecules possessing a positive charge at pH 7.4 [3]: 96%
- pKaH [4]: 8.8

Structure (SMILES): O=C1NC[C@H](CO)[C@H](O)[C@@H]1O [IGL, iso-galacto-fagomine lactam]
- ΔTm at 5000 µM (GALC [1]; [7]): 1.6 °C
- ΔTm at 5000 µM (GALC [1]; [8]): 8.1 °C
- increase of Tm of wild-type enzyme (GALC [1]): 6–8 degrees
- Ki [2]: 52 ± 3 µM

Structure (SMILES): CN1[C@@H](CC(=O)c2ccccc2)CCC[C@H]1C[C@H](O)c1ccccc1 [α-lobeline, reference compound]
- change in Tm (GALC [1]; either pH (4.6 or 7.4), data not shown): No change in T m
- binding in GALC crystals (difference electron density in active site) (GALC [5]): not observed to bind
